For data set [1], the system named is human iPSC-CFs. Put plainly: Collagen gel contraction assay. In kind it is cell-based. The settings on record: TGF-β ± SB; gels imaged after 24 hrs. The method, then:
Gel contraction assay. Collagen gel contraction assays were performed in three independent lines of iPSC-CFs (2.0×10^5 cells per well) using a Cell Contraction Assay kit (CBA5020, Cell Biolabs) as per the manufacturer's protocol. The cells were treated in the absence or presence of TGF-β±a TGF-β inhibitor SB431542 (SB). The gels were imaged after 24 hrs and gel area was quantified using ImageJ software (version 1.49).

The subject of data set [2] is human iPSC-CFs. Put plainly: Quantitative real-time PCR of gene expression in drug-treated iPSC-CFs. The class given is cell-based. The method, then: (§1) Quantitative real-time PCR. Total RNA was isolated using the Qiagen miRNeasy Mini Kit (Qiagen Sciences, Inc, Germantown, Md.) following the manufacturer's instruction. For reverse transcription, a High Capacity RNA-to-cDNA kit (Life Technologies) was used, and the cDNA template was synthesized based on 1 μg of total mRNA. After mixing 0.2 μl of the cDNA template, 1 μl of TaqMan® primer sets (Life Technologies), 10 μl of TaqMan® Master Mix (Life Technologies), and 8.8 μl of ddH2O in the reaction system, real-time quantitative PCR was performed on the StepOne™ Real-Time PCR System (Life Technologies). Each reaction was run in triplicate. Expression values were normalized to the average expression of GAPDH.
(§2) Drug treatment. Unless otherwise stated, cells were treated with all drugs for 48 hrs. We used 5 ng/ml of TGFβ1 (240-B-010, R&D) to activate iPSC-CFs. Due to the short half-life, BNP (CYT-369, Prospec) was added into the medium three times a day. We used 20 μM of sacubitril (SML1380, Sigma) to inhibit ANP/BNP degradation. We used pirfenidone (S2907, Selleck Chemicals) and doxorubicin (25316-40-9, Selleck Chemicals) to test their anti-fibrotic and pro-fibrotic effects on iPSC-CFs, respectively.
(Quantitative PCR measures a nucleic acid by following its amplification.)

The subject of data set [3] is human iPSC-CFs. Nature of the data set: Immunoblotting of α-SMA in drug-treated iPSC-CFs. The class given is cell-based. The method, then:
(§3) Immunoblotting and quantification. Cultured cells were homogenized in the RIPA buffer with proteinase and phosphatase inhibitor cocktails (78440, ThermoFisher), and quantified by Pierce™ BCA Protein Assay Kit (Pierce Biotechnology Inc.). A total of 20 μg protein was separated on NuPAGE® Novex® 4-12% Bis-Tris Protein Gels (Invitrogen, Carlsbad, Calif.). After being transferred to Amersham™ Hybond™ Blotting Membranes (GE Healthcare), proteins were incubated with primary antibodies against α-SMA (ab7817, Abcam), periostin (ab14041, Abcam), collagen Ill (ab7778, Abcam), fibronectin (ab6328, Abcam), MYH7 (sc-53089, Santa Cruz), and GAPDH (MA5-15738, Invitrogen). Band intensities for target bands were analyzed and quantified by the ImageJ Fuji program.
as §2
Background: A western blot detects proteins with antibodies after separation by electrophoresis.

The test system of data set [4] is human iPSC-CFs. Nature of the data set: Flow cytometry (FACS) of α-SMA+ myofibroblast population. The class given is cell-based. As to conditions: for effect on TGF-β-induced upregulation of α-SMA / propagation of the α-SMA+ population: in presence of TGF-β, FIG. 5I. The method, then: Fluorescence-activated cell sorting (FACS) analysis. Cells were dissociated into singlets by TrypLE™ (12605, Gibco) for 10 min at 37° C., and the cell suspension was filtered through a 40-μm cell strainer (BD Falcon, San Diego) to remove cell clumps. Single cells were fixed and permeabilized by BD CytofixCytoperm™ buffer (BD 554722) for 20 min at 4° C. Next, cells were incubated with primary antibodies followed by Alexa Fluor™ secondary antibodies (Invitrogen). Primary antibodies against COLI (ab90395, Abcam), DDR2 (sc-81707, Santa Cruz), TCF21 (hpa013189, Sigma-Aldrich), α-SMA (ab7817, Abcam), and WT1 (ab89901, Abcam) were used. The percentage of fibroblasts was calculated as the ratio of TCF21+, DDR2+, and COL-1+ cells in the whole population, respectively. The percentage of myofibroblasts was calculated as the ratio of α-SMA+ cells in the whole population.
as §2

Data set [5] deals with human iPSC-CFs. Put plainly: CF differentiation and passaging in the presence of TGF-β inhibitor. In kind it is cell-based. The method, then:
Differentiation of human iPSC-derived cardiac fibroblasts. Human iPSCs were treated with 6 μM of CHIR99021 for 2 days, recovered in RPMI+B27-insulin for 24 hrs, treated with 5 μM of IWR-1 (10161, Sigma) for 2 days, and then RPMI+B27-insulin for another 24 hrs. On day 6, human induced pluripotent stem cell-derived cardiac progenitor cells (iPSC-CPCs) were re-plated at a density of 20,000 cells/cm2 in advanced DMEM medium (12634028, Gibco®, Life Technologies). On day 7 or 8, cells were treated with 5 μM of CHIR99021 and 2 μM of retinoic acid (R2625, Sigma-Aldrich) for 2 days, and recovered in advanced DMEM for 3 days. Typically, the purity of human induced pluripotent stem cell-derived epicardial cells (iPSC-EPCs) is >90% (WT1+). Human iPSC-EPCs were re-plated and treated with […] (100-18B, PeproTech) and 10 μM of SB431542 (S1067, Selleck chemicals) in a fibroblast growth medium for another 6 days. >90% purity of iPSC-CFs (COL-I+/DDR2+/TCF21+) can be achieved as assessed by FACS. Cultures were maintained in a humidified atmosphere (95% air, 5% CO2) at 37° C.
Differentiation of Quiescent Cardiac Fibroblasts from iPSC Derived Epicardial Cells. 1. On day 14, prepare fibroblast growth medium containing 20 ng/ml of FGF2 and 10 μM of SB431542. 2. Aspirate the spent medium, add 1 ml of Accutase per well in a 6-well plate, and incubate the plate in a […], 5% CO2 incubator for 5 min. […]

Data set [6] deals with human iPSC-CFs co-cultured with iPSC-CMs. Put plainly: Indirect co-culture of iPSC-CFs with iPSC-CMs in the presence of TGF-β ± sacubitril (qPCR, immunoblot). The class given is cell-based. The method, then:
as §1, §3, §2
Indirect and direct contact co-culture. […] As a control, iPSC-CMs were co-cultured with iPSC-CMs in the transwells. The co-cultures were incubated at 37° C. and 5% CO2 before analysis. For direct contact co-culture, we first labeled fibroblasts and iPSC-CMs with CFSE (C34554, Thermo Fischer) and Far cell trace red (C34564, Thermofisher) dyes, respectively. Then, iPSC-CFs were seeded on top of the iPSC-CM monolayer at a ratio of 1:5, allowing for direct cell-cell contact. After 5 days of co-culture, the two cell types were separated by FACS sorting for downstream molecular analyses. The medium used for co-culture is the mixture of RPMI+B27 and fibroblast growth medium at a ratio of 3:1.

For data set [7] the following is noted: circulatory system; degrading enzyme neprilysin; cited from earlier work.

“Also recorded” adds a separate entry of the source.

In the case of `NC(=O)c1ccc(-c2nc(-c3ccc4c(c3)OCO4)c(-c3ccccn3)[nH]2)cc1` [SB431542, 4-[4-(1,3-benzodioxol-5-yl)-5-(2-pyridinyl)-1H-imidazol-2-yl]benzamide, reference compound], the “effect on TGF-β-induced collagen gel contraction” value in data set [1] is “completely abrogated”. The “effect on TGF-β-induced upregulation of myofibroblast markers ACTA2 and POSTN” value in data set [2] (TGF-β ± SB) was “effectively inhibited”. For the same molecule, in data set [3] (CFs from different human iPSC lines, TGF-β ± SB), the “effect on TGF-β-induced increase of α-SMA protein levels” value is given as “abolished”. Moreover, the “effect on TGF-β-induced upregulation of α-SMA / propagation of the α-SMA+ population” value in data set [4] is on record as “significantly suppresses”. Besides, in data set [5] (SB added during CF differentiation, transcriptional and protein levels), the “levels of smooth muscle marker genes (ACTA2, CNN1, TAGLN, SMTN, MYH11) in iPSC-CFs” value was “negligible levels”. In addition, the “αSMA+ cells (quiescent state preserved)” value in data set [5] (until passage 5, inhibitor present in fibroblast growth medium) is recorded as about 5%.
In the case of `COc1cccc2c1C(=O)c1c(O)c3c(c(O)c1C2=O)C[C@@](O)(C(=O)CO)C[C@@H]3O[C@H]1C[C@H](N)[C@H](O)[C@H](C)O1` [doxorubicin], the “induction of the α-SMA+ population (pro-fibrosis phenotype)” value in data set [4] (FIG. 5J, vs ctrl group) is “dose-dependent pattern; also recorded: dose-dependent induction”.
Consider `Cc1ccc(=O)n(-c2ccccc2)c1` [pirfenidone], for which the “effect on TGF-β-induced upregulation of α-SMA / propagation of the α-SMA+ population” value in data set [4] is “significantly suppresses”; in data set [4] (listed as Pirfenidone) it was “dose dependent inhibitory effect”.
As for `CCOC(=O)[C@H](C)C[C@@H](Cc1ccc(-c2ccccc2)cc1)NC(=O)CCC(=O)O` [sacubitril], in data set [6] (TGF-β, 20 μM sacubitril), the “mRNA levels of myofibroblast markers and ECM genes in the co-cultured condition” value is recorded as “further decreased”; the “protein levels of myofibroblast markers and ECM genes in the co-cultured condition” value was “further decreased”. The “anti-fibrotic effect seen in co-culture” value in data set [6] (iPSC-CMs and iPSC-CFs co-culture) was “significantly enhanced”. In data set [6] (only when added to the co-culture system), the myofibroblast marker periostin entry was “significantly decreased”.
Turning to atrial natriuretic peptide [ANP], the half-life (as a rule, the time in which the quantity being followed falls by half) in data set [7] is 3 min.
For the molecule brain natriuretic peptide [BNP], in data set [2] (in the presence of TGF-β), the “mRNA levels of CF markers (PDGFRA and TCF21)” value is “higher levels”; the “mRNA levels of myofibroblast markers and ECM genes (ACTA2, POSTN, COL1A1, COL3A1)” value was “significantly lower”. The “α-SMA protein levels with escalating concentrations” value in data set [3] (in the presence of TGF-β, dose-dependent manner) is recorded as “significantly suppressed”. Besides, the half-life in data set [7] was 20 min.

Values taken from patent US20220348877A1, “GENERATION OF QUIESCENT CARDIAC FIBROBLASTS FROM HUMAN INDUCED PLURIPOTENT STEM CELLS FOR IN VITRO MODELING OF CARDIAC FIBROSIS” (The Board of Trustees of the Leland Stanford Junior …, priority 2019, published 2022).
